From patent US9872824B2, “Semi-permanent hair straightening composition and method” (Lubrizol Advanced Materials, Inc., priority 2013, dated 2018)

Tests used:
[1] = Solution dipping, flat-iron thermal straightening, imaging analysis of tress length and width; design: species or system human; details: for Comparative straightening behaviour in words: imaging analysis data; for Ranking for semi-permanent thermal straightening efficiency: from imaging analysis data
Protocol: (§1) This method is used primarily to screen and select candidate molecules as possible thermally-activated agents. Typically, a solution of the candidate molecule is prepared in a suitable solvent system. The hair-tress is immersed completely in the solution with controlled concentration of candidate thermally-activated agent, pH, temperature and soaking time, such as for up to 60 minutes. Then, the hair-tress is removed from the solution, excess amount of material squeezed out, and the tress is blow-dried to at least 95% dryness before thermal straightening.
2. Image Analysis: the method can be used to quantify the curly hair-tress thermal straightening efficiency for different treatments. Measurements of tress length and width at half-length can be made with this method.
As for other tests, a curly hair-tress was completely immersed in an aqueous solution of a selected one of the small molecules and soaked for 45 minutes. Each solution contained an equimolar amount of the selected small molecule. The hair-tress was then removed from the solution, excess water was squeezed out manually, and the hair dried by a blower dryer to the desired dryness before thermal straightening, as described above.
The imaging analysis method was used to measure the total length and width of the hair-tress before and after the thermal straightening process, and after each shampoo-wash-cycle. More specifically, photographs of hair tresses or bundles of hair tresses were taken against a solid color background with a tripod-mounted digital camera. Illumination was selected to minimize shadows which could affect measurements. The tress was hung from a spindle that enabled the tress to be rotated 90 degrees so that pictures could be taken from four different angles, providing a full view of the tress, with a ruler mounted close to the tress as a scale.
The National Institutes for Health's Image J software program was used for image processing and analysis. […] The curly hair-tress has a contour length of 20 cm, and the top glued part is 2.0 cm wide and is about 0.4 cm of length. Therefore, the effective hair-tress contour length is 19.6 cm.

[2] = Solution-dipping screening, flat-iron straightening, shampoo-wash-fastness; design: species or system human; details: used alone under the same conditions
Protocol: as §1
The shampoo-wash-fastness is carried out by applying shampoo (VO5 or Suave shampoo) on the hair-tress which is massaged for 30 seconds followed by rinsing for 60 seconds with running warm water (32-35° C.). The washed hair-tress is then dried at 23° C. and 50% RH. Consecutive shampoo-wash-cycles are carried out without the drying step.
In the following initial screening test, the examination of thermally straightened hair-tresses is performed by visually examining a tress which has been treated in a solution containing up to 30 wt. % of a candidate thermally-activated agent for 45 minutes, flat-ironed at 210° C. (10×12 seconds). After three consecutive wash cycles, if the dried hair-tress (23° C. and 50% RH) becomes curly, this material is considered not effective, i.e. not worth a further evaluation in a cream formulation.

[3] = Solubility in water at room temperature; assay type: physicochemical; details: room temperature (25° C.)
[4] = average over 1-24 shampoos after thermal treatment
[5] = thermally-treated tress, equimolar aqueous solution, 45 min soak
[6] = thermally-treated tress, width at half-length

| Solubility in water [3] | SMILES | Front: Width1/2 [1, 4] | Lengthmax [1, 4] | Side: Width1/2 [1, 4] | Comparative straightening behaviour in words [1] | Lengthmax [1, 5] | Front: Width1/2 [1, 6] | Side: Width1/2 [1, 6] | Ranking for semi-permanent thermal straightening efficiency [1] | Straightening effectiveness relative to ethylene carbonate [2] |
| --- | --- | --- | --- | --- | --- | --- | --- | --- | --- | --- |
|  | O=C1OCCO1 [EC, ethylene carbonate] | 2.6 ± 0.1 cm | 19.4 ± 0.1 cm | 1.5 ± 0.1 cm | behave similarly to formaldehyde (F) and glyoxylic acid (GA) | 19.4 cm | 3.6 cm | 0.9 cm |  |  |
|  | O=C1NCCN1 [EU, Ethylene Urea] | 4.1 ± 0.2 cm | 18.2 ± 0.2 cm | 2.6 ± 0.1 cm | relax the curly hair-tress to some degree | 19.4 cm | 3.2 cm | 1.6 cm | GA≈EC≈F≧TC>O>EU>U |  |
|  | O=CC(=O)O [GA, Glyoxylic Acid] | 2.5 ± 0.5 cm | 19.2 ± 0.3 cm | 1.4 ± 0.2 cm |  | 19.5 cm | 2.8 cm | 1.2 cm | GA≈EC≈F≧TC>O>EU>U |  |
|  | O=C1OCC(CO)O1 (centres unmarked) [GC, glycerol carbonate] |  |  |  |  |  |  |  |  | less effective |
|  | O=C1NCCO1 [O, 2-oxazolidinone] | 3.9 ± 0.2 cm | 18.4 ± 0.1 cm | 2.7 ± 0.2 cm | gives better straightening results than urea (U) and ethylene urea (EU) | 19.3 cm | 3.3 cm | 1.7 cm | GA≈EC≈F≧TC>O>EU>U |  |
| up to 20 wt. % | CC1COC(=O)O1 (centres unmarked) [PC, propylene carbonate] |  |  |  |  |  |  |  |  | less effective |
|  | NC(N)=O [U, Urea] | 5.8 ± 0.2 cm | 18.2 ± 0.2 cm | 4.0 ± 0.4 cm | relax the curly hair-tress to some degree | 19.6 cm | 3.6 cm | 2.0 cm | GA≈EC≈F≧TC>O>EU>U |  |
